The source of these data is US8975232B2, “Macrocyclic kinase inhibitors and uses thereof” (President and Fellows of Harvard College, priority 2010, dated 2015).

Each structure is given as a SMILES string. *1 amine or outer side, *2 acyl side, *3 side chain or, on linkers, in order; H or OH if unused. Where a SMILES comes first, the peptide text is derived from it. Bridges are numbered along the chain shown (N, C = ends). [ ]: non-standard residue; d: D form. The star is where a group is joined. Ala(E-styryl) = N[C@@H](C/C=C/c1ccccc1)C(=O)O; dBpa = N[C@H](Cc1ccc(C(=O)c2ccccc2)cc1)C(=O)O; Maleoyl = O=C(/C=C\C(=O)[*:2])[*:1]; NH(CH2CH2O)2CH2CH2NH2 = NCCOCCOCCN*; Cha = N[C@@H](CC1CCCCC1)C(=O)O; Dab = NCC[C@H](N)C(=O)O; Dap = NC[C@H](N)C(=O)O

Broadly, the IC50 is the concentration at which inhibition is half-maximal. A higher IC50 goes with weaker potency in that assay.

One experiment concerns the target T1, Lck (Mus musculus, UniProt P06240).
T1 construct: murine Lck (residues 227-509); made in house
As to the kind of experiment: Continuous spectrophotometric kinase activity assay. Type of experiment: biochemical, murine. The source says:
(§1) Kinase domain constructs of human c-Abl (residues 229-512), chicken c-Src (residues 251-533 and residues 83-533), murine Lck (residues 227-509), and human Hck (residues 166-445) were expressed as previously described (Seeliger, Young et al. 2005; Seeliger, Nagar et al. 2007; the entire contents of each of which are incorporated by reference herein). Mutations were introduced into chicken c-Src (residues 251-533) (T338I, C277Q, L297M) by site-directed mutagenesis and verified by DNA sequencing.
(§2) In vitro kinase inhibition assays were performed using either a continuous spectrophotometric assay or a FRET-based endpoint assay.
(§3) The original characterization of kinase inhibition was performed with a commercial kinase assay that relies on a fluorescently labeled peptide kinase substrate (Z-LYTE, Invitrogen). For further characterization, a continuous spectrophotometric kinase activity assay was employed that is easily adapted to different substrate peptides as well as a wider range of peptide and ATP concentrations.

Experiment [1] has as its target T2, Src kinase domain (chicken c-Src residues 251-533) (Gallus gallus, UniProt P00523).
T2 construct: chicken c-Src (residues 251-533 and residues 83-533); made in house
The experiment is described as above. The note with it: Src kinase domain. Format: biochemical.
From the text: as §1, §2, §3

The next experiment deals with T3, Abl (Homo sapiens, UniProt P00519).
T3 construct: human c-Abl (residues 229-512); made in house
T3 sequence (P00519 229-512): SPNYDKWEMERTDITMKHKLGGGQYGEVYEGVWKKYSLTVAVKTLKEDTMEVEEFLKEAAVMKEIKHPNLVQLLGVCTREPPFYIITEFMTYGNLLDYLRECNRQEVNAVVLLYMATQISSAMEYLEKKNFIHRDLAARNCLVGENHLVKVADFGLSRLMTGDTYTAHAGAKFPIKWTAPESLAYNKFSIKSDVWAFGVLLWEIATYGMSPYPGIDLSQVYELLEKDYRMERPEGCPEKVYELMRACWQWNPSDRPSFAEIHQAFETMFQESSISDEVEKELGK
The experiment is described as above. Format: biochemical.
From the text: as §1, §2, §3

For experiment [2], the target named is T4, full-length chicken c-Src (Gallus gallus, UniProt P00523).
T4 construct: assayed against full-length chicken c-Src
In words: Z'-LYTE kinase assay (Tyr 02 substrate peptide), full-length c-Src. Format: biochemical. Here is the method:
For the FRET-based endpoint assay, kinase assays were performed using Invitrogen's Z′-LYTE kinase assay using the Tyr 02 substrate peptide (based upon the optimal Abl substrate peptide […]) according to the manufacturer's instructions. Assays were performed at near KM ATP concentrations for full-length c-Src and full-length c-Src T338I-50 μM and 7 μM, respectively.
Derivatives of MC4 were synthesized by Fmoc solid-phase peptide synthesis and assayed against full-length chicken c-Src using Invitrogen's Z′-LYTE kinase assay. […] Holding the amino acids at the A and C positions constant, variants of MC4 containing phenylalanine, cyclohexylalanine, pentafluorophenylalanine, and N-methyl-phenylalanine at the B position in place of furylalanine were synthesized and assayed.

Another experiment deals with HCK (Homo sapiens, UniProt P08631). In words: Continuous spectrophotometric kinase activity assay. As to conditions: 300 μM Src optimal peptide. Details: Kinase domain constructs of human c-Abl (residues 229-512), chicken c-Src (residues 251-533 and residues 83-533), murine Lck (residues 227-509), and human Hck (residues 166-445); made in house. Format: biochemical.
Sequence of HCK (P08631 262-515 limits assumed): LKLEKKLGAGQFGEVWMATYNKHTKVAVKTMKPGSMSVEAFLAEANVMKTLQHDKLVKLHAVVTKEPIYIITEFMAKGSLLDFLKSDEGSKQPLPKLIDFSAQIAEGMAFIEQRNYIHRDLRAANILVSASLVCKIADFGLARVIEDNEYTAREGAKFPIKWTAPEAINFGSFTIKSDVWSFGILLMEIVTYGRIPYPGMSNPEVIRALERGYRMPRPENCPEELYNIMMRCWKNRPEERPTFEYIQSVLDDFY
From the text: as §1, §2, §3

Another experiment deals with Src kinase (Homo sapiens, UniProt P12931). As to the kind of experiment: Z'-LYTE kinase assay (Invitrogen), Src. Format: biochemical. More on the design: full-length kinase in the Z-LYTE assay vs. kinase domain in the current study; purchased Millipore. As to conditions: for Src kinase inhibition (in words): non-DNA-linked compound; for IC50: Z'-LYTE, ATP near KM. The procedure: Nine macrocycles enriched in the Src selection (FIG. 5) and synthesized as described above were assayed in vitro for the ability to inhibit Src kinase activity. Kinase activity was assayed in the presence of varying concentrations of macrocycle using the FRET-based Z′-LYTE assay (Invitrogen).
Sequence of Src kinase (P12931 whole entry, the tested form may be a part): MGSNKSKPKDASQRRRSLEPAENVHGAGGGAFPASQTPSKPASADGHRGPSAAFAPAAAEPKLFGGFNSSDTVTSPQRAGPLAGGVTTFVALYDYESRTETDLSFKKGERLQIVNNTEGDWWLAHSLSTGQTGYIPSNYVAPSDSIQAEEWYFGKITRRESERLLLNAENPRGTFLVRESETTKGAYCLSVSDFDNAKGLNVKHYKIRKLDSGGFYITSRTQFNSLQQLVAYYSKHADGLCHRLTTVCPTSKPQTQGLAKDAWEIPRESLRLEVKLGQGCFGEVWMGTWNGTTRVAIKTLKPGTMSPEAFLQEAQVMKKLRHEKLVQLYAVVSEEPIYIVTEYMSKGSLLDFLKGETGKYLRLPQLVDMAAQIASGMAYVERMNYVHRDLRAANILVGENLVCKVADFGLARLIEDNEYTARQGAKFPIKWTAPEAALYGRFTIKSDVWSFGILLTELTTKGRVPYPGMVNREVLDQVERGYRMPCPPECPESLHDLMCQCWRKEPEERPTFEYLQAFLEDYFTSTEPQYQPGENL
(§4) Src IC50 determinations and single-point inhibition measurements were performed using Invitrogen's Z′-LYTE Tyr 02 assay kit according to the manufacturer's protocols. All kinase assays were performed at ATP concentrations near KM,ATP values, except where noted otherwise. Active human Src kinase was obtained from Millipore. For kinome profiling and IC50 determinations against non-Src kinases, compounds were submitted to Invitrogen's SelectScreen Kinase Profiling Service.

Experiment [3] deals with p38α-MAPKAPK2 kinase cascade (P38α-MK2) (Homo sapiens, UniProt P49137+Q16539). As to the kind of experiment: Z'-LYTE kinase cascade assay (Invitrogen SelectScreen). Format: biochemical.
Sequence of p38α-MAPKAPK2 kinase cascade (P38α-MK2) (Q16539 whole entry): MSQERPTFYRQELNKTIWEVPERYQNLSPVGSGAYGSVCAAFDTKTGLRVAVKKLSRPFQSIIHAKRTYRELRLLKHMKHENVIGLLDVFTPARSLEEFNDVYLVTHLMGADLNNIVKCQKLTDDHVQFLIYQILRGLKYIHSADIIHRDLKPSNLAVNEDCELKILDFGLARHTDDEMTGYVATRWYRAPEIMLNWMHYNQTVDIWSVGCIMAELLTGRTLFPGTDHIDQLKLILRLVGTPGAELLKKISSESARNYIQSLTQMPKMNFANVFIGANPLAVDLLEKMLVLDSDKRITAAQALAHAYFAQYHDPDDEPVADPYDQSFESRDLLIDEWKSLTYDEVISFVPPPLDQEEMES
Sequence of p38α-MAPKAPK2 kinase cascade (P38α-MK2) (P49137 whole entry): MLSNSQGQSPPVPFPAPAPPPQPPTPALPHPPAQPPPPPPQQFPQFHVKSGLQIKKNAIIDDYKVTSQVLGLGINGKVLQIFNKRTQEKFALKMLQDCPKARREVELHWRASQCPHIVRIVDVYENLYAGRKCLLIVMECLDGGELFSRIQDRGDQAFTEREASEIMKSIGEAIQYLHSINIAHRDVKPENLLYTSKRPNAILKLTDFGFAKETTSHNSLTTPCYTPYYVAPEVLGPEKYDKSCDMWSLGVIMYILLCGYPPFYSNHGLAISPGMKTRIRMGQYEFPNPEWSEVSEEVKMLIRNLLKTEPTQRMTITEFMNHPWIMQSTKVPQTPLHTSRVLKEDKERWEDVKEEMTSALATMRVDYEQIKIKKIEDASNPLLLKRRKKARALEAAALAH
From the text: (§5) Macrocycles A10-B1-C11-D5 and A10-B8-C11-D5 were enriched 2- to 6-fold upon selection for binding Akt3, MAPKAPK2, Pim1, and VEGFR2 (FIG. 6). These two macrocycles are structurally similar, sharing nitrophenylalanine (A10) and cyclohexylstatine (C11) building blocks as well as the same lysine scaffold (D5), and differ only at the B building block with either furylalanine (B1) or cyclohexylalanine (B8) (FIG. 6). For assay purposes, the macrocycles were synthesized with C-terminal PEG-diamine linkers to aid solubility, and then tested for the ability to inhibit Akt3, MAPKAPK2, Pim1 and VEGFR2.
as §4

The next experiment has as its target Pim1 (Homo sapiens, UniProt P11309). As to the kind of experiment: Z'-LYTE kinase assay (Invitrogen SelectScreen). Type of experiment: biochemical. The note with it: Pim1.
From the text: as §5, §4

[4] abbreviates: 5 μM ATP, 100 μM Src optimal peptide.
Where [5] appears, read: 5 μM ATP, 300 μM Src optimal peptide.
Where [6] appears, read: 250 μM ATP, 300 μM Src optimal peptide.

T1 sequence (P06240 227-509): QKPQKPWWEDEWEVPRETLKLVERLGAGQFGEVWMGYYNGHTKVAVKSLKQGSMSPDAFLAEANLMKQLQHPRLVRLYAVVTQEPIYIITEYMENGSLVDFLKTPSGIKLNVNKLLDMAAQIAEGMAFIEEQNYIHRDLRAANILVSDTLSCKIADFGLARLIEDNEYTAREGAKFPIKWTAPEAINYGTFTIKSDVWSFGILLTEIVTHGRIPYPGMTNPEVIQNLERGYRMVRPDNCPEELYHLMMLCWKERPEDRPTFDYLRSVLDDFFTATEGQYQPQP
Sequence of Pim1 (P11309 whole entry): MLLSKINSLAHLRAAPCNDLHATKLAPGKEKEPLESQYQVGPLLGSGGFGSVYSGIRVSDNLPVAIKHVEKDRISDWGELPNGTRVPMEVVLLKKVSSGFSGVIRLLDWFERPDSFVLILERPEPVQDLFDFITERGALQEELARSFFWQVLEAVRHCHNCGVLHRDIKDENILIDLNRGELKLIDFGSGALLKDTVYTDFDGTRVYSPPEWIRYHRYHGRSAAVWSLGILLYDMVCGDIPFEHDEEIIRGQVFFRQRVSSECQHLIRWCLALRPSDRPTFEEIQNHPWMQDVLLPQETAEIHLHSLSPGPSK

Take `NC(=O)[C@@H]1CCCNC(=O)[C@H](Cc2ccc([N+](=O)[O-])cc2)NC(=O)[C@H](Cc2ccccc2)NC(=O)[C@H](CC2CC2)NC(=O)/C=C/C(=O)N1` [MC4.1]: the IC50 turned out to be 5.2 µM against Lck (setting [4]); 5.5 µM on Lck (setting [5]); 10 µM against Lck (setting [6]); 0.6 µM in experiment [1] (setting [4]); 0.8 µM in experiment [1] (setting [5]); 1.8 µM in experiment [1] (setting [6]). The IC50 against Abl (setting [4]) was over 100 µM; on Abl (setting [5]), over 100 µM; on Abl (setting [6]), over 100 µM; in experiment [2] (full-length chicken c-Src, ATP near KM (50 μM)), 0.08 µM; against HCK (5 μM ATP), 6.3 µM; on HCK (250 μM ATP), 11 µM. The “increase in Src inhibition potency relative to parent macrocycle” value in experiment [2] was determined as 3 fold.

`CS(=O)(=O)CC[C@@H]1NC(=O)[C@H](Cc2ccco2)NC(=O)[C@H](CC2CC2)NC(=O)C=CC(=O)N[C@H](C(N)=O)CCNC1=O` [Macrocycle A9-B1-C5-D7]: on Src kinase, the “Src kinase inhibition (in words)” value is “did not inhibit Src”.

For `NC(=O)[C@@H]1CCCNC(=O)[C@H](Cc2ccc([N+](=O)[O-])cc2)NC(=O)[C@H](Cc2ccco2)NC(=O)[C@H](CC2CC2)NC(=O)C=CC(=O)N1` [Macrocycle A10-B1-C5-D6], the “difference in potency between cis and trans stereoisomers (Src)” value at Src kinase is given as about 10 fold.

On to `NC(=O)[C@@H]1CCNC(=O)[C@H](Cc2ccc([N+](=O)[O-])cc2)NC(=O)[C@H](Cc2ccco2)NC(=O)[C@H](CC2CC2)NC(=O)/C=C\C(=O)N1` [cis-A10-B1-C5-D7], for which, at Src kinase, half-maximal inhibition (IC50) required 8.9 µM.

Turning to `C=CC[C@@H]1NC(=O)/C=C\C(=O)N[C@H](C(N)=O)CCNC(=O)[C@H](CCCNC(=O)c2cnccn2)NC(=O)[C@H](Cc2ccco2)NC1=O` [cis-A11-B1-C3-D7], the IC50 at Src kinase is 10 µM.

At Src kinase, `NC(=O)[C@@H]1CCCCNC(=O)[C@H](CCCNC(=O)c2cnccn2)NC(=O)[C@H](Cc2ccco2)NC(=O)[C@H](CC2CC2)NC(=O)/C=C\C(=O)N1` [cis-A11-B1-C5-D5] had an IC50 of 85 µM.

In turn, `NC(=O)[C@@H]1CCNC(=O)[C@H](CCCNC(=O)c2cnccn2)NC(=O)[C@H](Cc2ccco2)NC(=O)[C@H](C/C=C/c2ccccc2)NC(=O)/C=C\C(=O)N1` [cis-A11-B1-C10-D7] displayed an IC50 against Src kinase of 7 µM.

At Src kinase, `NC(=O)[C@@H]1CCNC(=O)[C@H](CCCNC(=O)c2cnccn2)NC(=O)[C@H](CC2CCCCC2)NC(=O)[C@H](CC2CC2)NC(=O)/C=C\C(=O)N1` [cis-A11-B8-C5-D7] had an IC50 of 36 µM.

In the case of `NCCOCCOCCNC(=O)[C@@H]1CCNC(=O)/C=C\C(=O)N[C@@H](C/C=C/c2ccccc2)C(=O)N[C@@H](CC2CCCCC2)C(=O)N[C@H](Cc2ccc(C(=O)c3ccccc3)cc2)C(=O)N1` [cis-A12-B8-C10-D3] ([Ala(E-styryl)][Cha][dBpa][Dab]-{NH(CH2CH2O)2CH2CH2NH2}; linker N-4 via Maleoyl), the IC50 worked out at 12 µM in experiment [3] and 25 µM on Pim1.

With `NCCOCCOCCNC(=O)[C@@H]1CNC(=O)/C=C\C(=O)N[C@@H](C/C=C/c2ccccc2)C(=O)N[C@@H](CC2CCCCC2)C(=O)N[C@H](Cc2ccc(C(=O)c3ccccc3)cc2)C(=O)N1` [cis-A12-B8-C10-D4] ([Ala(E-styryl)][Cha][dBpa][Dap]-{NH(CH2CH2O)2CH2CH2NH2}; linker N-4 via Maleoyl), the IC50 was 20 µM in experiment [3] and 100 µM on Pim1.

On to `CS(=O)(=O)CC[C@@H]1NC(=O)[C@H](Cc2ccco2)NC(=O)[C@H](CC2CC2)NC(=O)/C=C/C(=O)N[C@H](C(N)=O)CCNC1=O` [trans-A9-B1-C5-D7], for which the IC50 on Src kinase is over 100 µM.

`NC(=O)[C@@H]1CCNC(=O)[C@H](Cc2ccc([N+](=O)[O-])cc2)NC(=O)[C@H](Cc2ccco2)NC(=O)[C@H](CC2CC2)NC(=O)/C=C/C(=O)N1` [trans-A10-B1-C5-D7] displayed an IC50 against Src kinase of 1.5 µM.

Molecule `C=CC[C@@H]1NC(=O)/C=C/C(=O)N[C@H](C(N)=O)CCNC(=O)[C@H](CCCNC(=O)c2cnccn2)NC(=O)[C@H](Cc2ccco2)NC1=O` [trans-A11-B1-C3-D7] returned an IC50 against Src kinase of 48 µM.

Turning to `NC(=O)[C@@H]1CCCCNC(=O)[C@H](CCCNC(=O)c2cnccn2)NC(=O)[C@H](Cc2ccco2)NC(=O)[C@H](CC2CC2)NC(=O)/C=C/C(=O)N1` [trans-A11-B1-C5-D5], on Src kinase, the IC50 is over 100 µM.

`NC(=O)[C@@H]1CCNC(=O)[C@H](CCCNC(=O)c2cnccn2)NC(=O)[C@H](Cc2ccco2)NC(=O)[C@H](CC2CC2)NC(=O)/C=C/C(=O)N1` [trans-A11-B1-C5-D7] came in with an IC50 against Src kinase of 12 µM.

`NC(=O)[C@@H]1CCNC(=O)[C@H](CCCNC(=O)c2cnccn2)NC(=O)[C@H](Cc2ccco2)NC(=O)[C@H](C/C=C/c2ccccc2)NC(=O)/C=C/C(=O)N1` [trans-A11-B1-C10-D7]: at Src kinase, half-maximal inhibition (IC50) required 21 µM.

At Src kinase, `NC(=O)[C@@H]1CCNC(=O)[C@H](CCCNC(=O)c2cnccn2)NC(=O)[C@H](CC2CCCCC2)NC(=O)[C@H](CC2CC2)NC(=O)/C=C/C(=O)N1` [trans-A11-B8-C5-D7] showed an IC50 of over 100 µM.

For the molecule `NC(=O)[C@@H]1CCNC(=O)[C@H](CCCNC(=O)c2cnccn2)NC(=O)[C@H](CC2CCCCC2)NC(=O)[C@H](C/C=C/c2ccccc2)NC(=O)/C=C/C(=O)N1` [trans-A11-B8-C10-D7], the concentration for half-maximal inhibition (IC50) against Src kinase was over 100 µM.

Consider `NC(=O)[C@@H]1CCCNC(=O)[C@H](Cc2ccccc2)NC(=O)[C@H](Cc2ccco2)NC(=O)[C@H](CC2CC2)NC(=O)/C=C/C(=O)N1` [trans-Phe-B1-C5-D6], for which the “Src kinase inhibition (in words)” value at Src kinase is listed as “abolished Src inhibition”.
